The nature of data set [1]: Half life in Sprague-Dawley rat at 10 mg/kg, po measured for 0.25 to 24 hrs by LC-MS/MS analysis. As to conditions: in vivo, time 0.25-24 hrs. The class given is ADME, organism-based.
Data set [2] is described as follows: Half life in Sprague-Dawley rat at 3 mg/kg, iv measured for 0.25 to 24 hrs by LC-MS/MS analysis. Format: ADME, organism-based. To be noted: in vivo, time 0.25-24 hrs.
Data set [3] is described as follows: Plasma protein binding in rat by LC-MS/MS analysis. The class given is ADME, cell-free. As to conditions: read-out: PPB (converted).
A short description of data set [4]: AUC (0 to infinity) in Sprague-Dawley rat at 3 mg/kg, iv measured for 0.25 to 24 hrs by LC-MS/MS analysis. Format: ADME, organism-based. Details: time 0.25-24 hrs, dose 3 mg/kg, route iv. To be noted: in vivo.
Data set [5] in a line: Metabolic stability in mouse liver microsomes assessed as half life measured up to 60 mins in presence of NADPH by LC-MS/MS analysis. The class given is ADME, Microsome.
Data set [6] has as its system A-375. Briefly: Induction of apoptosis in human A-375 cells assessed as total apoptotic cells at 4 uM incubated for 48 hrs by Annexin-V FITC/PI staining based flow cytometry analysis relative to control. Format: functional.
Data set [7] relates to A-375. As to the kind of experiment: Induction of apoptosis in human A-375 cells assessed as total apoptotic cells at 1 uM incubated for 48 hrs by Annexin-V FITC/PI staining based flow cytometry analysis relative to control. Format: functional.
A short description of data set [8]: Volume of distribution at steady state in Sprague-Dawley rat at 3 mg/kg, iv measured for 0.25 to 24 hrs by LC-MS/MS analysis. To be noted: in vivo, time 0.25-24 hrs, read-out: Vdss. Format: ADME, organism-based.
For data set [9], the target named is T1, Histone-lysine N-methyltransferase NSD2 (Homo sapiens, UniProt O96028).
T1 sequence (O96028 whole entry): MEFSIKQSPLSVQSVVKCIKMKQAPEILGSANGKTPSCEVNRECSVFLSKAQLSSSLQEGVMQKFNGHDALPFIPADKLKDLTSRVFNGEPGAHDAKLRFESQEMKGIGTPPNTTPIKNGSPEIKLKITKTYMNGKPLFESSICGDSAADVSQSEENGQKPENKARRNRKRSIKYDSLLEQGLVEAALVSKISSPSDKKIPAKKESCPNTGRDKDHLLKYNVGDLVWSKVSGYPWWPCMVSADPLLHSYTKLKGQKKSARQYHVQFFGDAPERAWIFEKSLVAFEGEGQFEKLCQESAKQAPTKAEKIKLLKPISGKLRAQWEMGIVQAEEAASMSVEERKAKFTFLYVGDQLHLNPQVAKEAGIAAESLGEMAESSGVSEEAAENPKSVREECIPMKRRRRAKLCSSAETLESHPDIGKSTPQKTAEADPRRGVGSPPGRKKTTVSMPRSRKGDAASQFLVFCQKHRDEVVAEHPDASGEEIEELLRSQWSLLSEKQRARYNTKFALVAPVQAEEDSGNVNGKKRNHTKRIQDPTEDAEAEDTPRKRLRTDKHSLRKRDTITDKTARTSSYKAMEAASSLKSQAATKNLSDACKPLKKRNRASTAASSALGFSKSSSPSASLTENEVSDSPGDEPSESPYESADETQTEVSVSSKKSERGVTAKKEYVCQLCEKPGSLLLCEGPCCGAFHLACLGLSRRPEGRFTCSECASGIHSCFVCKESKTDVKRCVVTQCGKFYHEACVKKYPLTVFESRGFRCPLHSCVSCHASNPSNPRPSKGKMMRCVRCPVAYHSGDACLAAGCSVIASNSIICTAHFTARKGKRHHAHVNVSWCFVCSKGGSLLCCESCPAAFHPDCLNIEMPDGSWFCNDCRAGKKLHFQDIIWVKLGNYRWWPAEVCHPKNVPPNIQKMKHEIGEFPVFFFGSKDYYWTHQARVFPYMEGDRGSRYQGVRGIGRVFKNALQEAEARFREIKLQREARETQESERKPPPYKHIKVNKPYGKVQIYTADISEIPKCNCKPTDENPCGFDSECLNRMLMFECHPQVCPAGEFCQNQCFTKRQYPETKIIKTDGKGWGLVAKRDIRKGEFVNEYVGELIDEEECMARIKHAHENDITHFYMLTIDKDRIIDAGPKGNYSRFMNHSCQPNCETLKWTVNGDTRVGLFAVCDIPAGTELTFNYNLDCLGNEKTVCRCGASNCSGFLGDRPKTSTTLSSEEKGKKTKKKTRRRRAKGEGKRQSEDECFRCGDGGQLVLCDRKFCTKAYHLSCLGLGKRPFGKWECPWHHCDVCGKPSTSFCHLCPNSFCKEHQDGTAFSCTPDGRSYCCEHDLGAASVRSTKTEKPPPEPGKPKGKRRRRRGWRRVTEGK
Briefly: Inhibition of NSD2 (unknown origin) using histone H4 (1 to 21 residues) peptide/SAM as substrate incubated for 210 mins in presence of SAM by AlphaLISA assay.

In data set [10] the target is T2, Histone-arginine methyltransferase CARM1 (Homo sapiens, UniProt Q86X55).
T2 sequence (Q86X55 whole entry): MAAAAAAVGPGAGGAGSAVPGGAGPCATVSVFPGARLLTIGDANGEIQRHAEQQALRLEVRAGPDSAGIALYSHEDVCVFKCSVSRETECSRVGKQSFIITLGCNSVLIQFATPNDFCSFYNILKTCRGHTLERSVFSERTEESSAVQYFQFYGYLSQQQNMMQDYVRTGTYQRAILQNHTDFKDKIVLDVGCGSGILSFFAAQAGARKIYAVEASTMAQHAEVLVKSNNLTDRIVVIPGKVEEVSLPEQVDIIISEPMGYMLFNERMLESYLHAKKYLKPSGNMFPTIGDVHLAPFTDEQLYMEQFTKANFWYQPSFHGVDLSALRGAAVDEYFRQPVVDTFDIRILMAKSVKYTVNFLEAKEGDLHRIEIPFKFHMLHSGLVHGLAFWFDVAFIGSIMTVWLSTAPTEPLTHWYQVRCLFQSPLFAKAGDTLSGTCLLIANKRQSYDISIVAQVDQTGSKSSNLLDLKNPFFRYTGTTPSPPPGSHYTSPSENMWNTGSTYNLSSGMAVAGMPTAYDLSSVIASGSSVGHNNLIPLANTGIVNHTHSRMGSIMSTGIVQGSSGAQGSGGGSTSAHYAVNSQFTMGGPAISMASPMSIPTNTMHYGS
Briefly: Inhibition of PRMT4 (unknown origin) using histone H4 (1 to 21 residues) peptide/SAM as substrate incubated for 210 mins in presence of SAM by AlphaLISA assay.

A short description of data set [11]: Metabolic stability in rat liver microsomes assessed as half life measured up to 60 mins in presence of NADPH by LC-MS/MS analysis. The class given is ADME, Microsome.
Data set [12] addresses Histone-lysine N-methyltransferase EZH2 (Homo sapiens, UniProt Q15910). Briefly: Inhibition of EZH2 (unknown origin) using peptide substrate preincubated for 10 mins followed by substrate addition for 4 hrs by HTRF assay.
Data set [13] concerns A-375. As to the kind of experiment: Induction of apoptosis in human A-375 cells assessed as total apoptotic cells at 2 uM incubated for 48 hrs by Annexin-V FITC/PI staining based flow cytometry analysis relative to control. The class given is functional.
Data set [14] is described as follows: AUC (0 to infinity) in Sprague-Dawley rat at 10 mg/kg, po measured for 0.25 to 24 hrs by LC-MS/MS analysis. The class given is ADME, organism-based. Set-up: dose 10 mg/kg, time upper 24 hrs, time lower 0.25 hrs, route po. As to conditions: in vivo.
Data set [15] in a line: Cmax in Sprague-Dawley rat at 10 mg/kg, po measured for 0.25 to 24 hrs by LC-MS/MS analysis. The class given is ADME, organism-based. Details: time lower 0.25 hrs, dose 10 mg/kg, time upper 24 hrs, route po. To be noted: in vivo.

The structures appear in SMILES notation. A value given as a limit tells only on which side of the number the result lay.

Sequence of Histone-lysine N-methyltransferase EZH2 (Q15910 whole entry): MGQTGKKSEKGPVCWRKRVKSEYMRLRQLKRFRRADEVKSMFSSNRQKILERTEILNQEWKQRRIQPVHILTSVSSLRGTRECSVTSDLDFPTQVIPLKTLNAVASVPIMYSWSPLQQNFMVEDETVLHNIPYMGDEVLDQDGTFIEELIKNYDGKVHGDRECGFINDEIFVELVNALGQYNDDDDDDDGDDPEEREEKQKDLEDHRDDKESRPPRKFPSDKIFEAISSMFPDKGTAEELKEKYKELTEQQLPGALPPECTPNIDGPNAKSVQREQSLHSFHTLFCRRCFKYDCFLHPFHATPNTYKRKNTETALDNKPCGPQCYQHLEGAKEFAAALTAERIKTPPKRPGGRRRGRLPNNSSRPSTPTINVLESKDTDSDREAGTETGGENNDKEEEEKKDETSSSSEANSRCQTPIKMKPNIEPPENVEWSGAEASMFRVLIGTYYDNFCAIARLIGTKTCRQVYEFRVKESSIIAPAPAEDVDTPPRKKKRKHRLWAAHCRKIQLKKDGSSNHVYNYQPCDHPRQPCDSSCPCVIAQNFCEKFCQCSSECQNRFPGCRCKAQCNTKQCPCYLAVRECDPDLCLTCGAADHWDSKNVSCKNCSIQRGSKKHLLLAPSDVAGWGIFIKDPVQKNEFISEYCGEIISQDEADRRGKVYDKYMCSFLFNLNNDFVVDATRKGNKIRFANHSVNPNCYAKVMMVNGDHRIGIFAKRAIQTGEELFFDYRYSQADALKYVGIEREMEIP

For `C[C@H](Oc1ccc(-c2cc3c(C4=CCNCC4)ncnc3[nH]2)cc1)c1ccccc1`, the half-life in data set [1] was 7.51 h; in data set [2], 2.58 h; in [5], 1.14 h; in data set [11], 9.25 min. Further, the fraction unbound in data set [3] is 0.014. Moreover, the AUC in [4] turned out to be 173 h/ng/mL; in data set [14] it was 65.3 h/ng/mL. For the same compound, the Activity is listed as 95.9% in data set [6], 14.14% in data set [7] and 66.39% in data set [13]. In addition, the Vd in [8] stood at 62.5 L/kg. Moreover, the IC50 in [9], in [10] and in [12] was more than 20 µM in each case. This compound also displayed a Cmax in data set [15] of 8.22 ng/mL.

Values taken from ChEMBL document CHEMBL5154928, “Structure-Aided Design, Synthesis, and Biological Evaluation of Potent and Selective Non-Nucleoside Inhibitors Targeting Protein Arginine Methyltransferase 5” (J Med Chem, 2022).
